Results from patent US20130261077A1 (priority 2012, published 2013).

Each molecule was assayed against T1, FimH-CRD (Escherichia coli, UniProt P08191) (assay: Competitive binding assay by fluorescence polarization, assay 2 (compounds prepared by robotics, plates frozen and thawed)).
T1 construct: The first 177 amino acids of the FimH protein; thrombin tag (printed as 'fusion protein with thrombin') (cleaved yes); made in house; host or cells: bacteria (pET21b plasmid)
How it was run: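 Fluorescence-polarization competition of 5 nM Alexa 647 mannoside probe with 60 nM FimH-CRD (first 177 residues, tag removed) in Tris-Cl pH 7.0, NaCl, EDTA, β-ME, BSA, 2.5% DMSO, 5 h at RT in the dark. Twelve-point 3-fold titrations (0.4 nM–75 μM) in duplicate; Kd interpolated from displacement curves.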

T1 sequence (P08191 22-177): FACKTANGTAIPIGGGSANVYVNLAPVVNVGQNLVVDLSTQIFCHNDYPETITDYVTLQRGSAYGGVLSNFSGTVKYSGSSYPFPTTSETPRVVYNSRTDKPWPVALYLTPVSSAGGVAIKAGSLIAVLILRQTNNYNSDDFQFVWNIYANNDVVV

In order of rising Kd:
1. Cc1nnc(-c2ccc3cc(-c4cccc([C@H]5O[C@H](CO)[C@@H](O)[C@H](O)[C@@H]5O)c4)ccc3c2)o1 [Compound 161, (2R,3S,4R,5S,6R)-2-(hydroxymethyl)-6-[3-[6-(5-methyl-1,3,4-oxadiazol-2-yl)-2-naphthyl]phenyl]tetrahydropyran-3,4,5-triol]  6.6 ± 1.2 nM
2. Cc1nc(-c2ccc(-c3cccc([C@H]4O[C@H](CO)[C@@H](O)[C@H](O)[C@@H]4O)c3)cc2)no1 [Compound 175]  10.2 ± 0.04 nM
3. OC[C@H]1O[C@H](c2cccc(-c3ccc4[nH]c(O)nc4c3)c2)[C@@H](O)[C@@H](O)[C@@H]1O [Compound 147, (2R,3S,4R,5S,6R)-2-[3-(2-Hydroxy-1H-benzimidazol-5-yl)phenyl]-6-(hydroxymethyl)tetrahydropyran-3,4,5-triol]  10.9 ± 4 nM
4. N#Cc1ccc(Oc2cccc([C@H]3O[C@H](CO)[C@@H](O)[C@H](O)[C@@H]3O)c2)cc1 [Compound 185, 4-[3-[(2R,3S,4R,5S,6R)-3,4,5-trihydroxy-6-(hydroxymethyl)tetrahydropyran-2-yl]phenoxy]benzonitrile]  11.7 ± 7.5 nM
5. Cc1nc(-c2ccc(-c3cccc([C@H]4O[C@H](CO)[C@@H](O)[C@H](O)[C@@H]4O)c3)cc2)cs1 [Compound 177]  12.1 ± 5.8 nM
6. OC[C@H]1O[C@H](c2cccc(-c3ccc(-c4cccnc4)cc3)c2)[C@@H](O)[C@@H](O)[C@@H]1O [Compound 174]  13.6 ± 3.4 nM
7. CNC(=O)c1cccc(-c2ccc(-c3cccc([C@H]4O[C@H](CO)[C@@H](O)[C@H](O)[C@@H]4O)c3)c(C)c2)c1 [Compound 159, N,3′-dimethyl-3″-((2R,3S,4R,5S,6R)-3,4,5-trihydroxy-6-(hydroxymethyl)tetrahydro-2H-pyran-2-yl)-[1,1′:4′,1″-terphenyl]-3-carboxamide]  15.6 ± 3.4 nM
8. OC[C@H]1O[C@H](c2ccc3cc(O)ccc3c2)[C@@H](O)[C@@H](O)[C@@H]1O [Compound 156, (2R,3S,4R,5S,6R)-2-(hydroxymethyl)-6-(6-hydroxy-2-naphthyl)tetrahydropyran-3,4,5-triol]  16.5 ± 4.3 nM
9. OC[C@H]1O[C@H](c2cccc(-c3ccc(-c4nnco4)cc3)c2)[C@@H](O)[C@@H](O)[C@@H]1O [Compound 178]  17.9 ± 3.7 nM
10. CC(=O)c1ccc(-c2cccc([C@H]3O[C@H](CO)[C@@H](O)[C@H](O)[C@@H]3O)c2)cc1 [Compound 184, 1-(3′-((2R,3S,4R,5S,6R)-3,4,5-trihydroxy-6-(hydroxymethyl)tetrahydro-2H-pyran-2-yl)-[1,1′-biphenyl]-4-yl)ethanone]  18.2 ± 8.4 nM
11. CNC(=O)c1cccc(-c2ccc3cc([C@H]4O[C@H](CO)[C@@H](O)[C@H](O)[C@@H]4O)ccc3c2)c1 [Compound 154, N-methyl-3-[6-[(2R,3S,4R,5S,6R)-3,4,5-trihydroxy-6-(hydroxymethyl)tetrahydropyran-2-yl]-2-naphthyl]benzamide]  18.4 ± 6.9 nM
12. CCCCn1cnc2ccc(-c3cccc([C@H]4O[C@H](CO)[C@@H](O)[C@H](O)[C@@H]4O)c3)cc21 [Compound 149, (2R,3S,4R,5S,6R)-2-[3-(3-Butylbenzimidazol-5-yl)phenyl]-6-(hydroxymethyl)tetrahydropyran-3,4,5-triol]  19.8 ± 11.2 nM
13. COCCOCCNC(=O)Cc1nnc(-c2ccc(-c3cccc([C@H]4O[C@H](CO)[C@@H](O)[C@H](O)[C@@H]4O)c3)cc2)o1 [Compound 182, N-(2-(2-methoxyethoxy)ethyl)-2-(5-(3′-((2R,3S,4R,5S,6R)-3,4,5-trihydroxy-6-(hydroxymethyl)tetrahydro-2H-pyran-2-yl)-[1,1′-biphenyl]-4-yl)-1,3,4-oxadiazol-2-yl)acetamide]  20.2 ± 4.7 nM
14. Cn1cnc2cc(-c3cccc([C@H]4O[C@H](CO)[C@@H](O)[C@H](O)[C@@H]4O)c3)ccc21 [Compound 179, (2R,3S,4R,5S,6R)-2-(hydroxymethyl)-6-(3-(1-methyl-1H-benzo[d]imidazol-5-yl)phenyl)tetrahydro-2H-pyran-3,4,5-triol]  20.4 ± 0.8 nM
15. CNC(=O)c1cccc(-c2ccc(-c3ccc([C@H]4O[C@H](CO)[C@@H](O)[C@H](O)[C@@H]4O)cc3)c(C)c2)c1 [Compound 158, N-methyl-3-[3-methyl-4-[4-[(2R,3S,4R,5S,6R)-3,4,5-trihydroxy-6-(hydroxymethyl)tetrahydropyran-2-yl]phenyl]phenyl]benzamide]  20.5 ± 4.3 nM
16. Cc1nnc(-c2ccc(-c3cccc([C@H]4O[C@H](CO)[C@@H](O)[C@H](O)[C@@H]4O)c3)cc2)s1 [Compound 176]  21.1 ± 2.6 nM
17. CNC(=O)Cc1nnc(-c2ccc(-c3cccc([C@H]4O[C@H](CO)[C@@H](O)[C@H](O)[C@@H]4O)c3)cc2)o1 [Compound 181, N-methyl-2-(5-(3′-((2R,3S,4R,5S,6R)-3,4,5-trihydroxy-6-(hydroxymethyl)tetrahydro-2H-pyran-2-yl)-[1,1′-biphenyl]-4-yl)-1,3,4-oxadiazol-2-yl)acetamide]  21.7 ± 4.2 nM
18. Cc1nnc(-c2ccc(-c3cccc([C@H]4O[C@H](CO)[C@@H](O)[C@H](O)[C@@H]4O)c3)nc2)o1 [Compound 183, (2R,3S,4R,5S,6R)-2-(hydroxymethyl)-6-(3-(5-(5-methyl-1,3,4-oxadiazol-2-yl)pyridin-2-yl)phenyl)tetrahydro-2H-pyran-3,4,5-triol]  24.8 ± 8.3 nM
19. OC[C@H]1O[C@H](c2cccc(-c3ccc4[nH]c(C(F)(F)F)nc4c3)c2)[C@@H](O)[C@@H](O)[C@@H]1O [Compound 148, (2R,3S,4R,5S,6R)-2-(Hydroxymethyl)-6-[3-[2-(trifluoromethyl)-1H-benzimidazol-5-yl]phenyl]tetrahydropyran-3,4,5-triol]  25.1 ± 12 nM
20. CS(=O)(=O)c1ccc2[nH]c(-c3cccc([C@H]4O[C@H](CO)[C@@H](O)[C@H](O)[C@@H]4O)c3)nc2c1 [Compound 169]  25.7 ± 0.4 nM
21. Cc1nnc(-c2ccc(-c3cccc([C@H]4O[C@H](CO)[C@@H](O)[C@H](O)[C@@H]4O)c3)cc2F)o1 [Compound 150, (2R,3S,4R,5S,6R)-2-[3-[3-Fluoro-4-(5-methyl-1,3,4-oxadiazol-2-yl)phenyl]phenyl]-6-(hydroxymethyl)tetrahydropyran-3,4,5-triol]  25.9 ± 5.1 nM
22. OC[C@H]1O[C@H](c2cccc(-c3nc4c(F)cc(F)cc4[nH]3)c2)[C@@H](O)[C@@H](O)[C@@H]1O [Compound 165]  28.9 ± 11.7 nM
23. N#Cc1ccc2[nH]c(-c3cccc([C@H]4O[C@H](CO)[C@@H](O)[C@H](O)[C@@H]4O)c3)nc2c1 [Compound 167]  32.1 ± 4.3 nM
24. OC[C@H]1O[C@H](c2cccc(-c3nc4c(C(F)(F)F)cccc4[nH]3)c2)[C@@H](O)[C@@H](O)[C@@H]1O [Compound 171]  32.1 ± 19.1 nM
25. OC[C@H]1O[C@H](c2cccc(-c3nc4cc(Cl)ccc4[nH]3)c2)[C@@H](O)[C@@H](O)[C@@H]1O [Compound 170]  32.4 ± 14.4 nM
26. CNC(=O)c1cccc(Cc2cccc([C@H]3O[C@H](CO)[C@@H](O)[C@H](O)[C@@H]3O)c2)c1 [Compound 157, N-methyl-3-[[3-[(2R,3S,4R,5S,6R)-3,4,5-trihydroxy-6-(hydroxymethyl)tetrahydropyran-2-yl]phenyl]methyl]benzamide]  34.3 ± 8.1 nM
27. COC(=O)c1nc2cc(-c3cccc([C@H]4O[C@H](CO)[C@@H](O)[C@H](O)[C@@H]4O)c3)ccc2[nH]1 [Compound 151, Methyl 5-[3-[(2R,3S,4R,5S,6R)-3,4,5-trihydroxy-6-(hydroxymethyl)tetrahydropyran-2-yl]phenyl]-1H-benzimidazole-2-carboxylate]  37.8 ± 13.4 nM
28. OC[C@H]1O[C@H](c2cccc(-c3nc4c(Cl)cc(Cl)cc4[nH]3)c2)[C@@H](O)[C@@H](O)[C@@H]1O [Compound 162]  39.5 ± 11 nM
29. O=C(c1ccccc1)c1ccc2[nH]c(-c3cccc([C@H]4O[C@H](CO)[C@@H](O)[C@H](O)[C@@H]4O)c3)nc2c1 [Compound 168]  42.5 ± 18.3 nM
30. CNC(=O)Cn1cnc2cc(-c3cccc([C@H]4O[C@H](CO)[C@@H](O)[C@H](O)[C@@H]4O)c3)ccc21 [Compound 152, N-Methyl-2-[5-[3-[(2R,3S,4R,5S,6R)-3,4,5-trihydroxy-6-(hydroxymethyl)tetrahydropyran-2-yl]phenyl]benzimidazol-1-yl]acetamide]  43.8 ± 1.1 nM
31. OC[C@H]1O[C@H](c2cccc(-c3nc4cc(F)ccc4[nH]3)c2)[C@@H](O)[C@@H](O)[C@@H]1O [Compound 166]  44.1 ± 19.9 nM
32. Cc1ccc2[nH]c(-c3cccc([C@H]4O[C@H](CO)[C@@H](O)[C@H](O)[C@@H]4O)c3)nc2c1 [Compound 164]  50.2 ± 14.1 nM
33. CNC(=O)c1cccc2[nH]c(-c3cccc([C@H]4O[C@H](CO)[C@@H](O)[C@H](O)[C@@H]4O)c3)nc12 [Compound 173, N-methyl-2-(3-((2R,3S,4R,5S,6R)-3,4,5-trihydroxy-6-(hydroxymethyl)tetrahydro-2H-pyran-2-yl)phenyl)-1H-benzo[d]imidazole-4-carboxamide]  54.6 ± 23 nM
34. OC[C@H]1O[C@H](c2ccc3cc(-c4cc(Cl)cc(Cl)c4)ccc3c2)[C@@H](O)[C@@H](O)[C@@H]1O [Compound 155, (2R,3S,4R,5S,6R)-2-[6-(3,5-dichlorophenyl)-2-naphthyl]-6-(hydroxymethyl)tetrahydropyran-3,4,5-triol]  71.7 ± 2 nM
35. OC[C@H]1O[C@H](c2cccc(-c3nc4ccccc4[nH]3)c2)[C@@H](O)[C@@H](O)[C@@H]1O [Compound 163]  82.1 ± 0.6 nM
36. O=C(O)c1cc(C(=O)O)cc(-c2cccc([C@H]3O[C@H](CO)[C@@H](O)[C@H](O)[C@@H]3O)c2)c1 [Compound 153, 5-[3-[(2R,3S,4R,5S,6R)-3,4,5-trihydroxy-6-(hydroxymethyl)tetrahydropyran-2-yl]phenyl]benzene-1,3-dicarboxylic acid]  88.7 ± 41.2 nM
37. CNC(=O)c1ccc2[nH]c(-c3cccc([C@H]4O[C@H](CO)[C@@H](O)[C@H](O)[C@@H]4O)c3)nc2c1 [Compound 172, N-methyl-2-(3-((2R,3S,4R,5S,6R)-3,4,5-trihydroxy-6-(hydroxymethyl)tetrahydro-2H-pyran-2-yl)phenyl)-1H-benzo[d]imidazole-5-carboxamide]  530 ± 714 nM
